Here are results for nine compounds from article PMC7586963, “Coumarin‐Tagged Dinuclear Trithiolato‐Bridged Ruthenium(II)⋅Arene Complexes: Photophysical Properties and Antiparasitic Activity” (Chembiochem, 2020).

A short description of data set [1]: in vitro. The following applies: human.
Description: (§1) In addition, the effects on uninfected HFF host cells were assessed. […] The viability of HFF cultures following drug treatments was measured by alamarBlue assay, and the proliferation of T. gondii was quantified by measuring β‐galactosidase activity.
In data set [2] the test system is T. gondii β-gal tachyzoites. Kind of data set: T. gondii β-gal tachyzoite proliferation in HFF (β-galactosidase/CPRG assay). The following applies: for activity at 0.1 µM / activity at 1 µM: read-out: T. gondii β-gal proliferation (%); for T. gondii β-gal proliferation (%): 3 days, relative to 0.1 % DMSO control; for IC50: read-out: IC50 against T. gondii β-gal tachyzoite proliferation.
Description: The compounds presented in this study were screened for biological activity in vitro against T. gondii β‐gal, a transgenic strain that constitutively expresses β‐galactosidase, which is grown in HFF monolayers. In addition, the effects on uninfected HFF host cells were assessed. […] The viability of HFF cultures following drug treatments was measured by alamarBlue assay, and the proliferation of T. gondii was quantified by measuring β‐galactosidase activity.
In vitro culture of parasites and host cells: If not stated otherwise, all tissue culture media were purchased from Gibco‐BRL, and biochemical reagents were from Sigma‐Aldrich). Human foreskin fibroblasts (HFF) were maintained in DMEM containing 10 % fetal calf serum (FCS; Gibco‐BRL) and antibiotics as described earlier.10 T. gondii β‐gal (transgenic T. gondii RH expressing the β‐galactosidase gene from E. coli 69 were maintained in HFF cells, and were isolated and separated from their host cells as described.10
In vitro assessment of drug efficacy: To study the effects of compounds against T. gondii tachyzoites in vitro, 1 mM stock solutions of complexes were prepared in DMSO, and stored at −20 °C. For assessment of drug efficacy against T. gondii tachyzoites, parasites were isolated and assays were performed using HFF as host cells as previously described.10 In short, 5×10^3 HFF cells per well were grown to confluence in a 96‐well plate in phenol‐red free culture medium at 37 °C with 5 % CO2. […] Initial assessments of drug efficacy were done by exposing parasite cultures to 0.1 and 1 μM of each compound for a period of three days, or 0.1 % DMSO was added as a control. […] After three days of incubation at 37 °C, 5 % CO2, medium was removed, and cell cultures were permeabilized by using 90 μL PBS containing 0.05 % Triton‐X‐100. After addition of 10 μL of 5 mM chlorophenol red‐β‐D‐galactopyranoside (CPRG; Roche Diagnostics) dissolved in PBS, the absorption shift was measured at 570 nm wavelength at various time points on a VersaMax multiplate reader (Bucher Biotec, Basel, Switzerland). For the initial screening at 0.1 and 1 μM, the activity, measured as the release of chlorophenol red over time, was calculated as percentage from DMSO control, which represented 100 % of T. gondii β‐gal growth. […] IC50 values were calculated after the logit‐log‐transformation of relative growth and subsequent regression analysis. All calculations were performed using the corresponding software tool contained in the Excel software package (Microsoft).

For data set [3], the system named is human foreskin fibroblasts (HFF).
Description: as §1
Data set [4] has the same test system. Kind of data set: Cytotoxicity on uninfected confluent HFF (alamarBlue assay). The conditions noted are these: 2.5 μM. On the technique in general: The colour change of resazurin is a common sign of viable cells or microbes.
Description: as §1

Like-named read-outs stand apart in the source and are kept apart here.

As a reminder, the viability is a read-out of living cells in per cent, often relative to untreated cells. As for `CCN(CC)c1ccc2cc(C(=O)NCCCNC(=O)OC(C)(C)C)c(=O)oc2c1` [Compound 5], in data set [1], the viability at 3 days, 0.1 µM was determined as 118 ± 10% and the viability at 3 days, 1 µM was determined as 88 ± 10%. In data set [2] (Toxoplasma gondii, 72 h), the activity at 0.1 µM was determined as 131 ± 3% and the activity at 1 µM is 118 ± 22%.
In the same order, the values of `CCN(CC)c1ccc2cc(C(=O)NCCCN)c(=O)oc2c1` [Compound 8] are 96 ± 9%, 85 ± 6%, 117 ± 10% and 114 ± 13%.
Take `O=C(O)c1cc2cc3c4c(c2oc1=O)CCCN4CCC3` [Dye2‐CO2H, 11‐oxo‐2,3,6,7‐tetrahydro‐1H,5H,11H‐pyrano[2,3‐f]pyrido[3,2,1‐ij]quinoline‐10‐carboxylic acid, reference compound]: in data set [1], the viability at 3 days, 0.1 µM was 106 ± 1% and the viability at 3 days, 1 µM was determined as 105%. The “HFF viability (%)” value in data set [3] (0.1 µM) was “did not affect viability of HFF”. Moreover, the “HFF viability (%)” value in data set [3] (1 µM) is listed as “did not affect viability of HFF”. The “T. gondii β-gal proliferation (%)” value in data set [2] (0.1 µM) worked out at 69%. Besides, in data set [2] (Toxoplasma gondii, 72 h), the activity at 0.1 µM came to 69 ± 11% and the activity at 1 µM was 92 ± 6%.
As for `CCc1nc(N)nc(N)c1-c1ccc(Cl)cc1` [pyrimethamine, reference compound], the viability at 2.5 µM in data set [1] came to 99%. Moreover, the IC50 in data set [2] (Toxoplasma gondii, 72 h) is 326 nM.
Consider `NCCCCNC(=O)c1cc2cc3c4c(c2oc1=O)CCCN4CCC3` [Compound 10], for which, in data set [1], the viability at 3 days, 0.1 µM is 124 ± 5% and the viability at 3 days, 1 µM was found to be 69 ± 9%. Moreover, in data set [2] (Toxoplasma gondii, 72 h), the activity at 0.1 µM is 101 ± 8% and the activity at 1 µM came out at 113 ± 7%.
On the same counts, the results for `CC(C)(C)OC(=O)NCCCCNC(=O)c1cc2cc3c4c(c2oc1=O)CCCN4CCC3` [Compound 7] are 95 ± 9%, 96 ± 6%, 132 ± 6% and 148 ± 5%.
On the same counts, the results for `CCN(CC)c1ccc2cc(C(=O)NCCCCN)c(=O)oc2c1` [Compound 9] are 125 ± 20%, 111 ± 4%, 114 ± 4% and 127 ± 4%.
With “[(η6-p-MeC6H4Pri)2Ru2(µ2-SCH2C6H4-p-But)(µ2-SC6H4-p-OH)2]Cl [Compound 19]”, in data set [4], the “reduction in HFF viability” value turned out to be 98%. The “HFF viability (%)” value in data set [3] (0.1 µM) amounted to 62 ± 8%; in data set [3] (1 µM) it was 56 ± 7%. Besides, the “HFF viability at 2.5 μM” value in data set [3] (2.5 μM) turned out to be 2%. The “T. gondii β-gal proliferation (%)” value in data set [2] (0.1 µM) came to 3 ± 1%; in data set [2] (1 µM), 2 ± 0%. The IC50 in data set [2] (three days of incubation, in HFF host cells, 6 concentrations 0.03-1 μM) was found to be 115 nM.
Take `CCN(CC)c1ccc2cc(C(=O)NCCCCNC(=O)OC(C)(C)C)c(=O)oc2c1` [Compound 6]: in data set [1], the viability at 3 days, 0.1 µM amounted to 98 ± 8% and the viability at 3 days, 1 µM amounted to 82 ± 4%. In data set [2] (Toxoplasma gondii, 72 h), the activity at 0.1 µM was found to be 137 ± 9% and the activity at 1 µM was found to be 125 ± 16%.
